Tests used:
[1] = Stability in simulated intestinal fluid; assay type: in vitro ADME; settings: 2 μM peptidomimetic, simulated intestinal fluid pH 7.5, 37° C.
Method: (§1) Reactions were terminated by the addition of TFA/H2O (15 mL, 10% (v/v)). […] The column was equilibrated with TFA/H20, at a flow rate of 1 mL/min.

DPP IV = DPP IV (Homo sapiens, UniProt P27487); assay: Stability against DPP IV enzyme; assay type: in vitro ADME; settings: 37° C.; for % degradation of peptidomimetics in 24 h when incubated with DPP-IV enzyme: 2 μM peptidomimetic; for half-life at 2 μM: DPP IV enzyme, pH 7.8, 2 μM peptidomimetic, read-out: half-life (t1/2) when incubated with DPP-IV enzyme
Method: as §1

[2] = Stability in liver microsomes; assay type: in vitro ADME; settings: 2 μM peptidomimetic, human liver microsomes, 37° C.; for half-life at 2 μM: pH 7.8, read-out: half-life (t1/2) when incubated with liver microsomes
Method: as §1

human glucagon receptor = target: T1, human glucagon receptor (Homo sapiens, UniProt P47871); assay: In vitro human glucagon antagonist activity (inhibition of cAMP production) in CHO/human glucagon R cells; assay type: cell-based; settings: with saturated concentration of glucagon peptide
T1 construct: The full-length cDNA was cloned in pcDNA3.1 (Invitrogen); expressed in transfected cells

Human GLP-1 receptor = target: T2, Human GLP-1 receptor (Homo sapiens, UniProt P43220); assay: In vitro Human GLP-1 R agonist activity (cyclic AMP determination) in CHO/human GLP1R cells; assay type: cell-based
T2 construct: The full-length cDNA was cloned in pcDNA3.1(+); expressed in transfected cells

[3] = Stability in simulated gastric fluid; assay type: in vitro ADME; settings: 2 μM peptidomimetic, simulated gastric fluid pH 1.5, 37° C.
Method: as §1

[4] = Stability in human plasma; assay type: in vitro ADME; settings: 2 μM peptidomimetic, pooled human plasma, 37° C.; for half-life at 2 μM: pH 7.8, read-out: half-life (t1/2) when incubated with human plasma
Method: as §1

DPP IV, sequence (P27487 whole entry, species assumed): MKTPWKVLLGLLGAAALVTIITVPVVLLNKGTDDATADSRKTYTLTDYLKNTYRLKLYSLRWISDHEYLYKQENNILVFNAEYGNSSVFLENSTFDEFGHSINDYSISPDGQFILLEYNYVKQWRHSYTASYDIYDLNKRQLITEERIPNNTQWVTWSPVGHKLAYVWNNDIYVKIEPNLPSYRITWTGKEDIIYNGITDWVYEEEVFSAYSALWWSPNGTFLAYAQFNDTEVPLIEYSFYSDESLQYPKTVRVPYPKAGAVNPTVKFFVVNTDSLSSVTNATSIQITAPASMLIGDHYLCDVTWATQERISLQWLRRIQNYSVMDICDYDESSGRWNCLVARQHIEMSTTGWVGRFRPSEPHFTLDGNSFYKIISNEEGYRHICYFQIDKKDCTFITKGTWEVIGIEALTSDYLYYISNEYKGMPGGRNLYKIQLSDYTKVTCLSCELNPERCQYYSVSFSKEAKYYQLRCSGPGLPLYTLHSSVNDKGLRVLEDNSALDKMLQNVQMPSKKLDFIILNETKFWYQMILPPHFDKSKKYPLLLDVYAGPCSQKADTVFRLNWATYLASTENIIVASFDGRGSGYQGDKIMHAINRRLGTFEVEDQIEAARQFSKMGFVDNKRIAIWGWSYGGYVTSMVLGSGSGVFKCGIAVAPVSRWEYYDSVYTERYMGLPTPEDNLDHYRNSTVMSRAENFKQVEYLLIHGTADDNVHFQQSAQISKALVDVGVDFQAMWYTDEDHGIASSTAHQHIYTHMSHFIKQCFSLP
T1 sequence (P47871 26-477): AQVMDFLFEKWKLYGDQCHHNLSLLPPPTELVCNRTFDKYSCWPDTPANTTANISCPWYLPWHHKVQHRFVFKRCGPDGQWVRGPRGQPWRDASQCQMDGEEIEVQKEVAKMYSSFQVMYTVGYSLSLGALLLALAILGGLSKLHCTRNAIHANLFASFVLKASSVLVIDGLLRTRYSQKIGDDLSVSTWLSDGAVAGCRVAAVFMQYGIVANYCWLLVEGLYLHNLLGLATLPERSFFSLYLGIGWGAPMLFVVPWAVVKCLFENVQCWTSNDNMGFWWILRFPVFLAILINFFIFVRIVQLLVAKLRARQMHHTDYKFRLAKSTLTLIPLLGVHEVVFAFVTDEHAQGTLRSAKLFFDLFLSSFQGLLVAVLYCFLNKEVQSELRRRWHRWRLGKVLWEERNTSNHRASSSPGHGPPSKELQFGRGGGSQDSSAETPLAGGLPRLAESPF
T2 sequence (P43220 24-463): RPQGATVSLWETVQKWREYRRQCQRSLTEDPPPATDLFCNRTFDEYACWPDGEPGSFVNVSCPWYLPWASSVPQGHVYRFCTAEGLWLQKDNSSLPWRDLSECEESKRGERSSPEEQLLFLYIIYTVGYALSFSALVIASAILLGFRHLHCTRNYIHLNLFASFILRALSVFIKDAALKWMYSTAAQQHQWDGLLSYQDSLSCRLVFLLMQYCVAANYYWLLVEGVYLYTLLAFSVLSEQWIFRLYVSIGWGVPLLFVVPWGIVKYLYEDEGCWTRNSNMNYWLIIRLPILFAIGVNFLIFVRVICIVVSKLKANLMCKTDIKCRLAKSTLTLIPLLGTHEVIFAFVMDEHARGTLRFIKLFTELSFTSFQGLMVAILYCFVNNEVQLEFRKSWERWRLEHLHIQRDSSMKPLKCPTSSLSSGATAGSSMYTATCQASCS

SMILES | half-life (t1/2) when incubated with simulated intestinal fluid [1] | % degradation of peptidomimetics in 24 h when incubated with simulated intestinal fluid [1] [%] | % degradation of peptidomimetics in 24 h when incubated with DPP-IV enzyme (DPP IV) [%] | half-life at 2 μM (DPP IV) [min] | % degradation of peptidomimetics in 24 h when incubated with liver microsomes [2] [%] | half-life at 2 μM [2] [min] | Human Glucagon receptor antagonistic activity shown as inhibition of cAMP production of Glucagon peptide (human glucagon receptor; 1 nM test compound) [pmol/ml/μg prt] | Human Glucagon receptor antagonistic activity shown as inhibition of cAMP production of Glucagon peptide (human glucagon receptor; 10 nM test compound) [pmol/ml/μg prt] | Human Glucagon receptor antagonistic activity shown as inhibition of cAMP production of Glucagon peptide (human glucagon receptor; 100 nM test compound) [pmol/ml/μg prt] | Human Glucagon receptor antagonistic activity shown as inhibition of cAMP production of Glucagon peptide (human glucagon receptor; 1 μM test compound) [pmol/ml/μg prt] | Human Glucagon receptor antagonistic activity shown as inhibition of cAMP production of Glucagon peptide (human glucagon receptor; 10 μM test compound) [pmol/ml/μg prt] | Human GLP-1 R activity (cAMP release), % activity with respect to control (Human GLP-1 receptor; 1 nM test compound) [%] | Human GLP-1 R activity (cAMP release), % activity with respect to control (Human GLP-1 receptor; 10 nM test compound) [%] | Human GLP-1 R activity (cAMP release), % activity with respect to control (Human GLP-1 receptor; 100 nM test compound) [%] | Human GLP-1 R activity (cAMP release), % activity with respect to control (Human GLP-1 receptor; 1 μM test compound) [%] | Human GLP-1 R activity (cAMP release), % activity with respect to control (Human GLP-1 receptor; 10 μM test compound) [%] | half-life (t1/2) when incubated with simulated gastric fluid [3] | % degradation of peptidomimetics in 24 h when incubated with simulated gastric fluid [3] [%] | % degradation of peptidomimetics in 24 h when incubated with human plasma [4] [%] | half-life at 2 μM [4] [min] | also measured
CCc1cc(OC)ccc1-c1ccc(CC(NC(=O)[C@H](CC(=O)O)NC(=O)[C@H](CO)NC(=O)[C@@H](NC(=O)C(C)(Cc2ccccc2F)NC(=O)[C@@H](NC(=O)CNC(=O)C(CCC#N)NC(=O)C(C)(C)NC(=O)[C@@H](N)Cc2c[nH]cn2)[C@H](C)O)[C@H](C)O)C(=S)NC(CCCc2ccccc2F)C(N)=O)cc1 (single isomer, unassigned) [compound 168] | (6) h | 42 | 72 | 540 | 78 | 60 | 21 ± 0.11 | 19 ± 0.02 | 18 ± 0.07 | 18 ± 0.03 | 16 ± 0.02 | 96 ± 0.09 | 99 ± 0.07 | 99 ± 0.04 | 99 ± 0.01 | 99 ± 0.08 | (8) h | 12 | 70 | 480 | 
CCc1cc(OC)ccc1-c1ccc(CC(NC(=O)[C@H](CC(=O)O)NC(=O)[C@H](CO)NC(=O)[C@@H](NC(=O)[C@H](Cc2ccccc2)NC(=O)[C@@H](NC(=O)CNC(=O)[C@H](CCC(N)=O)NC(=O)C(C)(C)NC(=O)[C@@H](N)Cc2c[nH]cn2)[C@@H](C)O)[C@@H](C)O)C(=O)NC(CCCc2cccc(Cl)c2)C(N)=O)cc1 (single isomer, unassigned) [compound 19] | (6) h | 41 | 86 | 540 | 77 | 60 | 0 | 0 | 0 | 0 | 0 | 99 ± 0.12 | 99 ± 0.08 | 99 ± 0.11 | 99 ± 0.12 | 99 ± 0.16 | (8) h | 15 | 70 | 480 | 
CCc1cc(OC)ccc1-c1ccc(CC(C(=O)N(C)C(CCCc2ccccc2F)C(N)=O)N(C)C(=O)[C@H](CC(=O)O)N(C)C(=O)[C@H](CO)NC(=O)[C@@H](NC(=O)C(C)(Cc2ccccc2F)NC(=O)[C@@H](NC(=O)CNC(=O)C(CCC#N)NC(=O)C(C)(C)NC(=O)[C@@H](N)Cc2c[nH]cn2)[C@H](C)O)[C@H](C)O)cc1 (single isomer, unassigned) [compound 156] | (6) h | 40 | 70 | 540 | 78 | 60 | 5 ± 0.01 | 2 ± 0.17 | 0 | 0 | 0 | 86 ± 0.11 | 99 ± 0.09 | 99 ± 0.06 | 99 ± 0.14 | 99 ± 0.19 | (8) h | 14 | 71 | 480 | 
CCc1cc(OC)ccc1-c1ccc(CC(NC(=S)[C@H](CC(=O)O)NC(=O)[C@H](CO)NC(=O)[C@@H](NC(=O)C(C)(Cc2ccccc2F)NC(=O)[C@@H](NC(=O)CNC(=O)C(CCC#N)NC(=O)C(C)(C)NC(=O)[C@@H](N)Cc2c[nH]cn2)[C@H](C)O)[C@H](C)O)C(=S)NC(CCCc2ccccc2)C(N)=O)cc1 (single isomer, unassigned) [compound 178] |  | 00 | 00 | > 1440 | 35 |  | 0 | 0 | 0 | 0 | 0 | 39 ± 0.12 | 80 ± 0.15 | 86 ± 0.18 | 95 ± 0.03 | 98 ± 0.09 |  | 00 | 00 | > 1440 | half-life at 2 μM ([1]; read-out: half-life (t1/2) when incubated with simulated intestinal fluid): > 1440 min; half-life (t1/2) when incubated with liver microsomes [2]: (5) h; half-life at 2 μM ([3]; read-out: half-life (t1/2) when incubated with simulated gastric fluid): > 1440 min

Reference: patent US8883963B2 (Cadila Healthcare Limited, priority 2007, dated 2014)
